Our source for the TGI and GI50 values is PubChem BioAssay (NCI).

One may read the TGI as the concentration at which net growth stops. Low values mean more potent growth arrest, high ones less potent growth arrest. By GI50 is commonly meant the concentration that inhibits growth by half.

The structures appear in SMILES notation. Values joined by “and” are separate entries in the source; they are usually repeats but may differ in a detail not shown here. Equal values may be shown once.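 Where inhibition never reached the appropriate level, the endpoint shown equals the highest concentration tested. Otherwise, values were interpolated linearly from a five-concentration, 48-hour dose response in 96-well plates. The concentration for 50% growth inhibition is given as GI50. The concentration for full growth arrest is given as TGI.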

Some test systems named below: 786-0 renal; UO-31 renal; CAKI-1 renal; RXF 393 renal; T-47D breast; HOP-92 NSCLC; TK-10 renal; NCI-H23 lung; HL-60(TB) leukemia; HCC-2998 colon.
What all share (experiment): DTP human tumour cell line panel, 48 h

In the case of `Nc1c(S(=O)(=O)O)cc(Nc2cccc(S(N)(=O)=O)c2)c2c1C(=O)c1ccccc1C2=O`, the TGI in the assay with 786-0 renal, in the assay with UO-31 renal, in the assay with CAKI-1 renal, in the assay on RXF 393 renal, in the assay with T-47D breast and with HOP-92 NSCLC was over 100 µM each time. The TGI in the assay with TK-10 renal, in the assay on NCI-H23 lung and in the assay on HL-60(TB) leukemia was over 100 µM throughout.

As to `Cc1cc(S(N)(=O)=O)c(S/C(=N\Nc2ccc([N+](=O)[O-])cc2)c2ccc(O)cc2)cc1Cl`, the GI50 with 786-0 renal was 3800 nM; with UO-31 renal, 5.66 µM; with CAKI-1 renal it was 2.3 µM; in the assay on RXF 393 renal, 676 nM; in the assay on T-47D breast it was 2540 nM; with TK-10 renal, 2.01 µM. Moreover, the figures for the GI50 in the assay with NCI-H23 lung, in the assay with HL-60(TB) leukemia and in the assay with HCC-2998 colon were 2420 nM, 1980 nM and 1650 nM, respectively. The TGI in the assay with 786-0 renal stood at 13.5 µM; with UO-31 renal it was 23 µM; in the assay on CAKI-1 renal, 5.22 µM; with RXF 393 renal, 3.5 µM; in the assay on T-47D breast it was 6.64 µM; with TK-10 renal, 5.16 µM. Besides, the results for the TGI in the assay on NCI-H23 lung, in the assay on HL-60(TB) leukemia and in the assay on HCC-2998 colon were 7.54 µM, over 100 µM and 3.87 µM, respectively.

On to `COc1cc(-c2cc(-c3nc4cc(Cl)c(Cl)cc4[nH]3)[nH]n2)cc(OC)c1OC`, for which the GI50 with 786-0 renal was 4090 nM; in the assay on UO-31 renal it was 2.47 µM; in the assay on CAKI-1 renal, 3.81 µM; in the assay with RXF 393 renal, 3170 nM; in the assay on T-47D breast, 1870 nM; with TK-10 renal, 4.61 µM. Further, the GI50 with NCI-H23 lung is 3400 nM; in the assay with HL-60(TB) leukemia, 3340 nM; in the assay on HCC-2998 colon it was 4470 nM. In addition, the TGI in the assay with 786-0 renal was 16.2 µM; in the assay with UO-31 renal it was 8.48 µM; in the assay with CAKI-1 renal, 12.9 µM; with RXF 393 renal it was 13.5 µM; with T-47D breast, 5 µM; with TK-10 renal, 15.5 µM. Further, the figures for the TGI in the assay with NCI-H23 lung, with HL-60(TB) leukemia and with HCC-2998 colon were 13 µM, 11.6 µM and 15 µM, respectively.

Take `CNS(=O)(=O)c1ccccc1C(=N)c1ccccc1`: the TGI with 786-0 renal, in the assay on UO-31 renal, with CAKI-1 renal, in the assay on RXF 393 renal, in the assay with T-47D breast and in the assay on HOP-92 NSCLC was over 100 µM each time. Also, the TGI in the assay on TK-10 renal, in the assay on NCI-H23 lung and with HL-60(TB) leukemia was over 100 µM each time.

As for `C=CC[N+]1(CCO)CCN=C1CCCCCCCCCCCCC` (stereo not drawn), the GI50 is 1650 nM with 786-0 renal; 1.18 µM with UO-31 renal; 1.65 µM in the assay on CAKI-1 renal; 1440 nM in the assay on RXF 393 renal; 1650 nM with T-47D breast; 1.99 µM in the assay on TK-10 renal. Moreover, the GI50 in the assay with NCI-H23 lung was 1500 nM; with HL-60(TB) leukemia it was 1510 nM; with HCC-2998 colon, 1370 nM. The TGI worked out at 3.01 µM with 786-0 renal; 2.57 µM in the assay with UO-31 renal; 3.15 µM with CAKI-1 renal; 2.81 µM in the assay with RXF 393 renal; 3.47 µM with T-47D breast; 3.4 µM in the assay with TK-10 renal. Also, the concentration for total growth inhibition (TGI) amounted to 2.82 µM in the assay with NCI-H23 lung, 3.1 µM with HL-60(TB) leukemia and 2.66 µM in the assay on HCC-2998 colon.

Regarding `C[n+]1c2cc(N)ccc2cc2ccc(N)cc21` (tested in a mixture with another compound), the 50% growth inhibitory concentration (GI50) in the assay on 786-0 renal was 320 nM; in the assay on UO-31 renal, 0.106 µM; in the assay on CAKI-1 renal, 0.429 µM; in the assay on RXF 393 renal it was 1120 nM; in the assay on T-47D breast, 330 nM; in the assay on HOP-92 NSCLC it was 273 nM. Also, the results for the GI50 in the assay on TK-10 renal, with NCI-H23 lung and with HCC-2998 colon were 1.04 µM, 292 nM and 221 nM, respectively. For the same compound, the TGI with 786-0 renal stood at 2.29 µM; in the assay on UO-31 renal, 0.598 µM; with CAKI-1 renal it was 3.54 µM; with RXF 393 renal, 3.41 µM; with T-47D breast, 3.02 µM; with HOP-92 NSCLC, 1.09 µM. The concentration for total growth inhibition (TGI) with TK-10 renal was 7.49 µM; in the assay with NCI-H23 lung, 1.43 µM; in the assay on HCC-2998 colon, 1.44 µM.

Turning to `COc1ccc(N2CCN(CN3CCN(c4ccc(OC)cc4)C3)C2)cc1`, the GI50 in the assay on 786-0 renal was over 100000 nM; in the assay with UO-31 renal, over 100 µM; in the assay with CAKI-1 renal, over 100 µM; in the assay on RXF 393 renal, over 100000 nM; in the assay on T-47D breast it was over 100000 nM; in the assay with HOP-92 NSCLC, 57900 nM. Besides, the values for the GI50 with TK-10 renal, in the assay on NCI-H23 lung and in the assay on HCC-2998 colon were over 100 µM, 48000 nM and 50400 nM, respectively. In addition, the TGI with 786-0 renal, with UO-31 renal, in the assay with CAKI-1 renal, with RXF 393 renal, in the assay on T-47D breast and in the assay on HOP-92 NSCLC was over 100 µM in each case. Besides, the TGI with TK-10 renal, in the assay with NCI-H23 lung and in the assay with HCC-2998 colon was over 100 µM throughout.

`COC1=C(C)C(=O)C2=C(C1=O)C(CO)N1C(C#N)C3CC4C(C1C2N1CCOC41)N3C` (stereo not drawn): the 50% growth inhibitory concentration (GI50) with 786-0 renal was 2.43 nM; in the assay on RXF 393 renal, 2.01 nM and 17.8 nM; in the assay with T-47D breast it was 0.33 nM and < 14.4 nM; in the assay with HOP-92 NSCLC, 1.4 nM; with TK-10 renal, 0.247 µM and 0.0437 µM; in the assay with NCI-H23 lung it was 1.73 nM and < 13.4 nM. The 50% growth inhibitory concentration (GI50) is 0.183 nM with HL-60(TB) leukemia and 3.95 nM in the assay with HCC-2998 colon. For the same compound, the total growth inhibition concentration (TGI) in the assay on 786-0 renal was 1.31 µM and 1.55 µM; in the assay on TK-10 renal, 4.05 µM and 15.6 µM.

`c1ccc(CCCNc2nnnc3ccccc23)cc1`: the TGI in the assay with 786-0 renal is over 100 µM; in the assay on CAKI-1 renal it was over 100 µM; with RXF 393 renal it was over 100 µM; in the assay with T-47D breast it was 83 µM; with HOP-92 NSCLC it was over 100 µM; in the assay with TK-10 renal it was over 100 µM. In addition, the TGI in the assay on NCI-H23 lung and with HL-60(TB) leukemia was over 100 µM in each case.

`COc1nc2c(cc1S(=O)(=O)c1ccccc1)CCc1c-2cnn1Cc1ccccc1`: the GI50 with 786-0 renal was 13600 nM; in the assay on UO-31 renal it was 4.3 µM; with CAKI-1 renal, 5.02 µM; in the assay with RXF 393 renal, 6040 nM; with T-47D breast, 3090 nM; in the assay with TK-10 renal, over 100 µM. Further, the results for the GI50 with NCI-H23 lung, with HL-60(TB) leukemia and in the assay with HCC-2998 colon were 8450 nM, 2950 nM and 25300 nM, respectively. In addition, the TGI in the assay with 786-0 renal is over 100 µM; with UO-31 renal it was over 100 µM; with CAKI-1 renal, over 100 µM; in the assay with RXF 393 renal, over 100 µM; in the assay with T-47D breast, 79.5 µM; in the assay with TK-10 renal it was over 100 µM. Besides, the TGI with NCI-H23 lung, in the assay with HL-60(TB) leukemia and in the assay on HCC-2998 colon was over 100 µM throughout.

In the case of `COc1ccc2[nH]c3c(C)c4cc[n+](C)cc4c(C)c3c2c1`, the GI50 with 786-0 renal is 267 nM and 161 nM and 898 nM; in the assay with UO-31 renal, 13.6 µM and 15.6 µM; in the assay on RXF 393 renal, 1540 nM; in the assay with T-47D breast, 880 nM and 257 nM and 1030 nM; in the assay on HOP-92 NSCLC it was 239 nM and 1550 nM; in the assay with TK-10 renal it was 12.4 µM and 24.3 µM and 5.65 µM. The concentration for 50% growth inhibition (GI50) with NCI-H23 lung is 325 nM; in the assay with HL-60(TB) leukemia, 8310 nM and 9670 nM; in the assay on HCC-2998 colon, 2410 nM and 1020 nM. Further, the concentration for total growth inhibition (TGI) is 5.49 µM in the assay on 786-0 renal; 16.5 µM [middle of 4 runs] in the assay with RXF 393 renal; 12.6 µM and 3.63 µM and 11.2 µM in the assay with T-47D breast; 89.2 µM and > 163 µM in the assay with TK-10 renal; 3.3 µM [middle of 4 runs] in the assay on NCI-H23 lung.

Consider `CCC(C(=O)c1cccs1)C(O)(C(F)(F)F)C(F)(F)F` (stereo not drawn), for which the total growth inhibition concentration (TGI) in the assay on 786-0 renal, in the assay with UO-31 renal, in the assay with CAKI-1 renal, in the assay with RXF 393 renal, in the assay on T-47D breast and in the assay with HOP-92 NSCLC was over 100 µM in each case. Further, the TGI in the assay on TK-10 renal, in the assay with NCI-H23 lung and in the assay on HL-60(TB) leukemia was over 100 µM in each case.

Turning to `C[C@@H]1[C@H]2[C@H](C=C3[C@@H]4CC[C@H]5Cc6nc7c(nc6C[C@]5(C)[C@H]4C[C@@H](O)[C@@]32C)C[C@@H]2CC[C@H]3C4=C[C@@H]5O[C@@]6(CC[C@](C)(CO)O6)[C@@H](C)[C@@]5(O)[C@@]4(C)[C@H](O)C[C@@H]3[C@@]2(C)C7)O[C@]12CCC(C)(C)O2`, the concentration for 50% growth inhibition (GI50) was 148 nM in the assay on 786-0 renal; 0.275 µM in the assay with UO-31 renal; 70.6 nM with RXF 393 renal; 405 nM in the assay with T-47D breast; 716 nM with HOP-92 NSCLC; 13.3 µM in the assay on TK-10 renal. For the same compound, the results for the GI50 in the assay with NCI-H23 lung, with HL-60(TB) leukemia and in the assay with HCC-2998 colon were 1610 nM, 419 nM and 16000 nM, respectively. In addition, the concentration for total growth inhibition (TGI) was 0.752 µM in the assay on 786-0 renal; 1.54 µM with UO-31 renal; 0.333 µM in the assay with RXF 393 renal; over 41.8 µM with T-47D breast; 13.3 µM with HOP-92 NSCLC; 72.5 µM in the assay on TK-10 renal. The concentration for total growth inhibition (TGI) turned out to be 23.1 µM with NCI-H23 lung, 7.76 µM in the assay on HL-60(TB) leukemia and 56.5 µM in the assay with HCC-2998 colon.

Consider `C=CCC(N[C@@H](CO)c1ccccc1)c1ccccn1` (stereo partly drawn), for which the GI50 was over 100000 nM in the assay on 786-0 renal; 93.4 µM with UO-31 renal; over 100 µM with CAKI-1 renal; over 100000 nM in the assay on RXF 393 renal; over 100000 nM in the assay on T-47D breast; over 100 µM in the assay on TK-10 renal. In addition, the GI50 in the assay on NCI-H23 lung is 60200 nM; with HL-60(TB) leukemia, 24000 nM; with HCC-2998 colon, over 100000 nM. In addition, the TGI in the assay on 786-0 renal, with UO-31 renal, in the assay on CAKI-1 renal, in the assay with RXF 393 renal, in the assay on T-47D breast and with TK-10 renal was over 100 µM each time. Also, the total growth inhibition concentration (TGI) in the assay on NCI-H23 lung, in the assay on HL-60(TB) leukemia and in the assay on HCC-2998 colon was over 100 µM throughout.
